This is an account of results in ChEMBL document CHEMBL3421536, “Identification of 4-(4-nitro-2-phenethoxyphenyl)pyridine as a promising new lead for discovering inhibitors of both human and rat 11β-Hydroxylase” (Eur J Med Chem, 2015).

Series [1] addresses T1, Cytochrome P450 11B1, mitochondrial (Homo sapiens, UniProt P15538).
T1 sequence (P15538 whole entry): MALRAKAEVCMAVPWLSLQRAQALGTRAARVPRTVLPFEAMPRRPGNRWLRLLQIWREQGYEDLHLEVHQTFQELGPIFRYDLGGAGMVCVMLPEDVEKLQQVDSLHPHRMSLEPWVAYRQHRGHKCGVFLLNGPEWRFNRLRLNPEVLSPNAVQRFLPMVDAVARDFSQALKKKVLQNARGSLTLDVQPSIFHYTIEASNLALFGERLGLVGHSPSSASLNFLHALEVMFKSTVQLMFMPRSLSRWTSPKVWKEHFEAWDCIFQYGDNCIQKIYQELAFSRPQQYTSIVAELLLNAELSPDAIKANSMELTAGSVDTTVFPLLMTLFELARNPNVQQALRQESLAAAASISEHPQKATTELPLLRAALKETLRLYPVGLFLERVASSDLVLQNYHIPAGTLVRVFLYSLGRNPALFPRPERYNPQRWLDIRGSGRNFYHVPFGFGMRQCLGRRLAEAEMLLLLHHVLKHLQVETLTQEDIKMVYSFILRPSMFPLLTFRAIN
Kind of series: Inhibition of human CYP11B1 expressed in hamster fibroblast using 100 nM [3H]-11-deoxycorticosterone as substrate after 25 mins by HPLC analysis.

Series [2] concerns the target T2, Cytochrome P450 11B2, mitochondrial (Homo sapiens, UniProt P19099).
T2 sequence (P19099 whole entry): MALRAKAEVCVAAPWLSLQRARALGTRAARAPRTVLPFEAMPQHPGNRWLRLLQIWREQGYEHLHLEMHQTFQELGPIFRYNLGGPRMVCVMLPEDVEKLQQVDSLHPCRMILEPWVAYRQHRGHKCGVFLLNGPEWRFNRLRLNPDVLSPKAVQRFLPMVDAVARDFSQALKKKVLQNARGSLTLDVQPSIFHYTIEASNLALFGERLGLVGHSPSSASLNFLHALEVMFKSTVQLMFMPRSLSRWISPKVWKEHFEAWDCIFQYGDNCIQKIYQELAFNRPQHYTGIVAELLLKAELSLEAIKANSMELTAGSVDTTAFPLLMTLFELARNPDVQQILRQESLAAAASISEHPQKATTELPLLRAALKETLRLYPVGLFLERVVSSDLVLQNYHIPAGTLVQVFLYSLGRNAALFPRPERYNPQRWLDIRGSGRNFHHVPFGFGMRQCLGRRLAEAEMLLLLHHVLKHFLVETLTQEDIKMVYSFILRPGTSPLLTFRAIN
Kind of series: Inhibition of human CYP11B2 expressed in hamster fibroblast using 100 nM [3H]-11-deoxycorticosterone as substrate after 45 mins by HPLC analysis.

Series [3] has as its target T3, Aromatase (Homo sapiens, UniProt P11511).
T3 sequence (P11511 whole entry): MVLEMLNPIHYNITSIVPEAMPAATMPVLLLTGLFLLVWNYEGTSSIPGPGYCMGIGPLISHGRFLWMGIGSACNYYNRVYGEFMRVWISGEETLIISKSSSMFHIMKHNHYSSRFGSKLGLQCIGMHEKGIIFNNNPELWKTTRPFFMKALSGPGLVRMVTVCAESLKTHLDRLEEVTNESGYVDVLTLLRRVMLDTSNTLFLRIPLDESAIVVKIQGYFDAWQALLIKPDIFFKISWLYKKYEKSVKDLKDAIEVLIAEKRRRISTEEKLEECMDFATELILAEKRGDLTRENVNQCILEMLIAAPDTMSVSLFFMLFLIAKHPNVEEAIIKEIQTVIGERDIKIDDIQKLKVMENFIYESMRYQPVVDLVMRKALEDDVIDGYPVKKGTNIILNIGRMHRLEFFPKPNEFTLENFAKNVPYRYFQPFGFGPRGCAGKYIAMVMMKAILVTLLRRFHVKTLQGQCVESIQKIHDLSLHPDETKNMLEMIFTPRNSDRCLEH
Kind of series: Inhibition of human CYP19 expressed in hamster fibroblast using 500 nM [1beta-3H] androstenedione as substrate by HPLC analysis.

Series [4] has as its target T4, Cytochrome P450 11B1, mitochondrial (Rattus norvegicus, UniProt P15393).
T4 sequence (P15393 whole entry): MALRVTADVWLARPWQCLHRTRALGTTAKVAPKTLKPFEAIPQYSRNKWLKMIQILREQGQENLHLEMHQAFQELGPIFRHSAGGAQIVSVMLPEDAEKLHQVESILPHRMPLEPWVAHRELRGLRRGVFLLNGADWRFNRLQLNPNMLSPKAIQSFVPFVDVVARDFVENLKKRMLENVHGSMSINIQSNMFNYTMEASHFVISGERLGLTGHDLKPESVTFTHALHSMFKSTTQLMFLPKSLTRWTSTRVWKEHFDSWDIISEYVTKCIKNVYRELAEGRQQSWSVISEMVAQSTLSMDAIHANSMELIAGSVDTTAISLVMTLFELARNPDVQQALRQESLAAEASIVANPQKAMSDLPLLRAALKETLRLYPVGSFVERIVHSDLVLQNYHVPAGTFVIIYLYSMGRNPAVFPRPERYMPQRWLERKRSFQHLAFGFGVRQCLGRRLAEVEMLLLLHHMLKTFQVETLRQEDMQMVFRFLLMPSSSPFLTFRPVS
Kind of series: Inhibition of rat CYP11B1 expressed in hamster fibroblast using 500 nM [3H]-11-deoxycorticosterone as substrate after 7 hrs by HPLC analysis.

For series [5], the species on record is Homo sapiens. Kind of series: Selectivity index, ratio of IC50 for human CYP11B2 to IC50 for human CYP11B1.
A short description of series [6]: Retention time of the compound by HPLC analysis. Format: physicochemical.

Where only a bound is given, the exact number is not on record here.

As for `O=[N+]([O-])c1ccc(-c2cccnc2)c(OCCCc2ccccc2)c1`, the IC50 was determined as 6 nM in series [1], 15 nM in series [2], 137 nM in series [3] and 2080 nM in series [4]. Moreover, the Selectivity Index in series [5] was found to be 2.5. Moreover, the Retention_time in series [6] was 9.28 min.
`O=[N+]([O-])c1ccc(-c2ccncc2)c(OCc2ccccc2)c1`: the half-inhibitory concentration (IC50) in series [1] stood at 50 nM; in series [2], 87 nM; in series [3], 2420 nM; in series [4] it was 648 nM. In addition, in series [5], the Selectivity Index turned out to be 1.7. This compound also registered a Retention_time in series [6] of 9.02 min.
Consider `O=[N+]([O-])c1ccc(-c2ccncc2)cc1OCCc1ccccc1`, for which the IC50 was 1200 nM in series [1] and 714 nM in series [2]. Further, the Selectivity Index in series [5] came out at 0.6. This compound also gave a Retention_time in series [6] of 9.57 min.
`CN(C)C(=O)c1ccc(-c2cccnc2)c(OCCc2ccccc2)c1`: the concentration for half-maximal inhibition (IC50) in series [1] amounted to 594 nM; in series [2], 299 nM. For the same compound, in series [5], the Selectivity Index was found to be 0.5. Further, in series [6], the Retention_time is on record as 7.56 min.
Turning to `CN(C)C(=O)c1ccc(-c2ccncc2)c(OCCc2ccccc2)c1`, the IC50 in series [1] was 1150 nM; in series [2], 816 nM. In series [5], the Selectivity Index stood at 0.7. The compound also had a Retention_time in series [6] of 7.51 min.
Turning to `O=C1CCc2cc(-c3cccnc3)c(OCc3ccccc3)cc2N1`, the half-inhibitory concentration (IC50) in series [4] came out at 1500 nM. Also, the Selectivity Index in series [5] was found to be 0.5.
With `FC(F)(F)c1ccc(-c2cccnc2)c(OCCc2ccccc2)c1`, the concentration for half-maximal inhibition (IC50) was found to be 812 nM in series [1] and 945 nM in series [2]. Further, in series [5], the Selectivity Index stood at 1.2. The Retention_time in series [6] is given as 10.3 min.
Regarding `O=[N+]([O-])c1ccc(-c2cccnc2)cc1OCCc1ccccc1`, the concentration for half-maximal inhibition (IC50) is 508 nM in series [1] and 447 nM in series [2]. The Selectivity Index in series [5] was 0.9. Further, the Retention_time in series [6] is 9.8 min.
Turning to `c1ccc(-c2ccc(Cn3ccnc3)cn2)cc1`, the values for the IC50 in series [3] and in series [4] were > 5000 nM and > 10000 nM, respectively. The Selectivity Index in series [5] was determined as 13.3.
Regarding `N#Cc1ccc(-c2cccnc2)c(OCCc2ccccc2)c1`, the IC50 in series [1] was determined as 38 nM; in series [2], 63 nM; in series [3] it was 165 nM; in series [4] it was 543 nM. Moreover, the Selectivity Index in series [5] worked out at 1.6. The Retention_time in series [6] worked out at 8.85 min.
Turning to `O=[N+]([O-])c1ccc(Cc2cccnc2)c(OCCc2ccccc2)c1`, the IC50 in series [1] amounted to 182 nM; in series [2], 246 nM; in series [3], 128 nM; in series [4], 706 nM. The Selectivity Index in series [5] is 1.3. Moreover, the Retention_time in series [6] was found to be 9.7 min.
Regarding `O=[N+]([O-])c1ccc(-c2ccncc2)c(OCCCc2ccccc2)c1`, the 50% inhibitory concentration (IC50) in series [1] stood at 8 nM; in series [2], 18 nM; in series [3], 4990 nM; in series [4], 370 nM. Moreover, the Selectivity Index in series [5] was 2.4. In addition, in series [6], the Retention_time is 9.33 min.
In the case of `c1ccc(CCOc2cccnc2-c2cccnc2)cc1`, the concentration for half-maximal inhibition (IC50) in series [1] was determined as 1660 nM; in series [2], 1450 nM. Also, in series [5], the Selectivity Index worked out at 0.9. Moreover, the Retention_time in series [6] came to 7.73 min.
In the case of `COc1ccc(-c2cccnc2)c(OCCc2ccccc2)c1`, the half-maximal inhibitory concentration (IC50) stood at 183 nM in series [1] and 230 nM in series [2]. Further, the Selectivity Index in series [5] came to 1.3. In series [6], this compound registered a Retention_time of 9.07 min.
As for `O=[N+]([O-])c1ccc(-c2cccnc2)c(OCc2ccccc2)c1`, the IC50 is 23 nM in series [1], 17 nM in series [2], 146 nM in series [3] and 1490 nM in series [4]. Besides, in series [5], the Selectivity Index was 0.7. The compound further yielded a Retention_time in series [6] of 9.07 min.
In the case of `O=[N+]([O-])c1ccc(-c2ccncc2)c(OCCc2ccccc2)c1`, the IC50 came to 2 nM in series [1], 7 nM in series [2], 1890 nM in series [3] and 163 nM in series [4]. Also, the Selectivity Index in series [5] is 3.5. Besides, in series [6], the Retention_time turned out to be 9.21 min.
Turning to `FC(F)(F)c1ccc(-c2ccncc2)c(OCCc2ccccc2)c1`, the figures for the IC50 in series [1], in series [2] and in series [3] were 26 nM, 24 nM and 2090 nM, respectively. The Selectivity Index in series [5] came to 0.9. In series [6], this compound came in with a Retention_time of 10.13 min.
`c1ccc(CCOc2cccnc2-c2ccncc2)cc1`: the IC50 in series [1] amounted to 2670 nM; in series [2], 2440 nM. The Selectivity Index in series [5] was 0.9. Besides, in series [6], the Retention_time is 7.91 min.
As for `O=[N+]([O-])c1ccc(-c2cccnc2)c(OCCc2ccccc2)c1`, the half-maximal inhibitory concentration (IC50) in series [1] was found to be 13 nM; in series [2], 53 nM; in series [3], 75 nM; in series [4], 1310 nM. Besides, the Selectivity Index in series [5] turned out to be 4.1. The compound also came in with a Retention_time in series [6] of 9.13 min.
On to `Fc1ccc(-c2cccnc2)c(OCCc2ccccc2)c1`, for which the figures for the IC50 in series [1] and in series [2] were 51 nM and 84 nM, respectively. In series [5], the Selectivity Index worked out at 1.6. Further, the Retention_time in series [6] is 9.57 min.
With `Nc1ccc(-c2cccnc2)c(OCc2ccccc2)c1`, the IC50 in series [1] amounted to 540 nM; in series [2], 260 nM; in series [3], 447 nM. Further, the Selectivity Index in series [5] amounted to 0.5. The Retention_time in series [6] came out at 5.63 min.
With `COc1ccc(-c2ccncc2)c(OCCc2ccccc2)c1`, the 50% inhibitory concentration (IC50) in series [1] was determined as 46 nM; in series [2] it was 70 nM. Further, the Selectivity Index in series [5] amounted to 1.5. The same compound registered a Retention_time in series [6] of 9.2 min.
As for `Cc1cncc(Cc2ccc(-c3ccccc3)nc2)c1`, the IC50 in series [3] is > 5000 nM. For the same compound, the Selectivity Index in series [5] is 15.1.
Turning to `Fc1ccc(-c2ccncc2)c(OCCc2ccccc2)c1`, the IC50 was determined as 60 nM in series [1] and 74 nM in series [2]. Moreover, the Selectivity Index in series [5] stood at 1.2. The Retention_time in series [6] came out at 9.32 min.
`COc1cc2c(cc1-c1cccnc1)CCC(=O)N2` came in with an IC50 in series [1] of 2490 nM. Moreover, the Selectivity Index in series [5] came out at 0.1.
Regarding `CC(=O)Nc1ccc(-c2cccnc2)c(OCc2ccccc2)c1`, the figures for the IC50 in series [1] and in series [2] were 279 nM and 643 nM, respectively. In addition, the Selectivity Index in series [5] was 2.3. The same compound returned a Retention_time in series [6] of 7.25 min.
For the compound `CC(C)(C(=O)c1cccnc1)c1cccnc1` [METYRAPONE], the half-maximal inhibitory concentration (IC50) is > 5000 nM in series [3] and 4610 nM in series [4].
For the compound `O=C(Nc1ccc(-c2cccnc2)c(OCc2ccccc2)c1)c1ccc(F)cc1`, the values for the IC50 in series [1] and in series [2] were 1210 nM and 756 nM, respectively. Moreover, in series [5], the Selectivity Index was determined as 0.6. This compound registered a Retention_time in series [6] of 8.67 min.

Usually IC50 stands for the point on the concentration scale where inhibition reaches its midpoint. A lower IC50 goes with inhibition by little substance.
